Assay results from ChEMBL document CHEMBL1135251, “Oxime derivatives of sordaricin as potent antifungal agents” (Bioorg Med Chem Lett, 2002).
Converted amounts (≈) assume the structure as drawn.

What was measured:
Candida albicans = assay: Minimum inhibitory concentration against Candida albicans; format: functional
Nakaseomyces glabratus = assay: Minimum inhibitory concentration against Candida glabrata; format: functional
HEp-2 = assay: Cytotoxicity was evaluated against Hep-2 cells in vitro; format: functional; conditions: Homo sapiens
[1] = Therapeutic index (CC50/MIC) was determined
Cryptococcus neoformans = assay: In vitro minimum inhibitory concentration against […]

MIC (Candida albicans) [µg/mL]	MIC (Nakaseomyces glabratus) [µg/mL]	MIC (Cryptococcus neoformans) [µg/mL]	Compound	CC50 (HEp-2) [µg/mL]	Therapeutic index [1]
2 (≈ 4.26 µM)	8 (≈ 17 µM)		CC(C)C1=CC2CC3(C=O)[C@@H]4CC[C@@H](C)[C@H]4CC2(/C=N/OCc2ccccc2Cl)[C@]13C(=O)O	1.4 (≈ 2.98 µM)	0.7
16 (≈ 35.7 µM)	2 (≈ 4.47 µM)		CC(C)C1=CC2CC3(C=O)[C@@H]4CC[C@@H](C)[C@H]4CC2(C2=NOC(c4ccccc4)C2)[C@]13C(=O)O (stereo not given in full)		
16 (≈ 32.5 µM)	> 128		COC1C(O)[C@H](O)[C@H](OC[C@@]23C[C@@H]4[C@H](C)CC[C@H]4[C@@]4(C=O)CC2C=C(C(C)C)[C@@]34C(=O)O)O[C@@H]1C (single isomer, unassigned) [SORDARIN]	167 (≈ 339 µM)	10
0.5 (≈ 1.16 µM)	1 (≈ 2.33 µM)		CC(C)C1=CC2CC3(C=O)[C@@H]4CC[C@@H](C)[C@H]4CC2(/C=N/OC2CCCCO2)[C@]13C(=O)O (stereo not given in full)	33 (≈ 76.8 µM)	66
1 (≈ 2.2 µM)	4 (≈ 8.78 µM)		CC(C)C1=CC2CC3(C=O)[C@@H]4CC[C@@H](C)[C@H]4CC2(/C=N/OCCCC(F)(F)F)[C@]13C(=O)O	1.9 (≈ 4.17 µM)	1.9
2 (≈ 4.51 µM)	8 (≈ 18 µM)		CC(C)C1=CC2CC3(C=O)[C@@H]4CC[C@@H](C)[C@H]4CC2(/C=N/OCC2CCCCO2)[C@]13C(=O)O (stereo not given in full)	9 (≈ 20.3 µM)	4.5
> 128	8 (≈ 19.3 µM)		CC(C)C1=CC2CC3(C=O)[C@@H]4CC[C@@H](C)[C@H]4CC2(C2=NOC4OCCC24)[C@]13C(=O)O (stereo not given in full)		
8 (≈ 18 µM)	4 (≈ 9.02 µM)		CCOC(=O)C1CC(C23C[C@@H]4[C@H](C)CC[C@H]4C4(C=O)CC2C=C(C(C)C)[C@@]34C(=O)O)=NO1 (stereo not given in full)		
2 (≈ 4.53 µM)	1 (≈ 2.26 µM)		CC(C)C1=CC2CC3(C=O)[C@@H]4CC[C@@H](C)[C@H]4CC2(C2=NOC(CC(C)(C)C)C2)[C@]13C(=O)O (stereo not given in full)		
2 (≈ 4.41 µM)	2 (≈ 4.41 µM)		CC(C)C1=CC2CC3(C=O)[C@@H]4CC[C@@H](C)[C@H]4CC2(C2=NOC(C4CCCCC4)C2)[C@]13C(=O)O (stereo not given in full)		
4 (≈ 8.78 µM)	1 (≈ 2.19 µM)		CCC(C)(C)CC1CC(C23C[C@@H]4[C@H](C)CC[C@H]4C4(C=O)CC2C=C(C(C)C)[C@@]34C(=O)O)=NO1 (stereo not given in full)		
0.5 (≈ 1.25 µM)	0.5 (≈ 1.25 µM)		CC(C)CO/N=C/C12C[C@@H]3[C@H](C)CC[C@H]3C3(C=O)CC1C=C(C(C)C)[C@@]23C(=O)O	35 (≈ 87.2 µM)	70
8 (≈ 20.1 µM)	32 (≈ 80.5 µM)		CC#CCO/N=C/C12C[C@@H]3[C@H](C)CC[C@H]3C3(C=O)CC1C=C(C(C)C)[C@@]23C(=O)O	16 (≈ 40.3 µM)	2
128 (≈ 312 µM)	128 (≈ 312 µM)		CC(C)C1=CC2CC3(C=O)[C@@H]4CC[C@@H](C)[C@H]4CC2(C2=NOC(CC#N)C2)[C@]13C(=O)O (stereo not given in full)		
1 (≈ 2.26 µM)	4 (≈ 9.06 µM)		CC(C)CCC1CC(C23C[C@@H]4[C@H](C)CC[C@H]4C4(C=O)CC2C=C(C(C)C)[C@@]34C(=O)O)=NO1 (stereo not given in full)		
8 (≈ 17.9 µM)	128 (≈ 286 µM)		COCCOCCO/N=C/C12C[C@@H]3[C@H](C)CC[C@H]3C3(C=O)CC1C=C(C(C)C)[C@@]23C(=O)O	46 (≈ 103 µM)	5.7
0.5 (≈ 1.2 µM)	1 (≈ 2.41 µM)		CC(C)CCO/N=C/C12C[C@@H]3[C@H](C)CC[C@H]3C3(C=O)CC1C=C(C(C)C)[C@@]23C(=O)O	4 (≈ 9.63 µM)	8
> 128	> 128		CC(C)C1=CC2CC3(C=O)[C@@H]4CC[C@@H](C)[C@H]4CC2(C2=NOC(CO)C2)[C@]13C(=O)O (stereo not given in full)		
0.06 (≈ 0.144 µM)	0.06 (≈ 0.144 µM)	64 (≈ 154 µM)	CCCCCO/N=C/C12C[C@@H]3[C@H](C)CC[C@H]3C3(C=O)CC1C=C(C(C)C)[C@@]23C(=O)O	5.5 (≈ 13.2 µM)	92
2 (≈ 4.68 µM)	2 (≈ 4.68 µM)		CCCCC1CC(C23C[C@@H]4[C@H](C)CC[C@H]4C4(C=O)CC2C=C(C(C)C)[C@@]34C(=O)O)=NO1 (stereo not given in full)		
0.25 (≈ 0.602 µM)	0.5 (≈ 1.2 µM)		CC[C@@H](C)CO/N=C/C12C[C@@H]3[C@H](C)CC[C@H]3C3(C=O)CC1C=C(C(C)C)[C@@]23C(=O)O	2.7 (≈ 6.5 µM)	11
1 (≈ 2.25 µM)	8 (≈ 18 µM)		CCCCOC1CC(C23C[C@@H]4[C@H](C)CC[C@H]4C4(C=O)CC2C=C(C(C)C)[C@@]34C(=O)O)=NO1 (stereo not given in full)		
0.25 (≈ 0.566 µM)	1 (≈ 2.26 µM)		CC(C)C1=CC2CC3(C=O)[C@@H]4CC[C@@H](C)[C@H]4CC2(/C=N/OCC2CCCCC2)[C@]13C(=O)O	0.6 (≈ 1.36 µM)	2.4
> 128	> 128		CC(C)C1=CC2CC3(C=O)[C@@H]4CC[C@@H](C)[C@H]4CC2(C2=NOC4C2CCN4Cc2ccccc2)[C@]13C(=O)O (stereo not given in full)		
16 (≈ 35.6 µM)	16 (≈ 35.6 µM)		Cc1ccccc1CO/N=C/C12C[C@@H]3[C@H](C)CC[C@H]3C3(C=O)CC1C=C(C(C)C)[C@@]23C(=O)O		
> 128	128 (≈ 282 µM)		Cc1noc(C)c1CO/N=C/C12C[C@@H]3[C@H](C)CC[C@H]3C3(C=O)CC1C=C(C(C)C)[C@@]23C(=O)O		
16 (≈ 34 µM)	> 128		CC(C)C1=CC2CC3(C=O)[C@@H]4CC[C@@H](C)[C@H]4CC2(C2=NOC(CN4CCOCC4)C2)[C@]13C(=O)O (stereo not given in full)		
16 (≈ 38.3 µM)	16 (≈ 38.3 µM)		CCOCCO/N=C/C12C[C@@H]3[C@H](C)CC[C@H]3C3(C=O)CC1C=C(C(C)C)[C@@]23C(=O)O	22 (≈ 52.7 µM)	1.4
> 128	1 (≈ 2.35 µM)		CC(C)C1=CC2CC3(C=O)[C@@H]4CC[C@@H](C)[C@H]4CC2(C2=NOC4CCCCC24)[C@]13C(=O)O (stereo not given in full)		
1 (≈ 2.42 µM)	1 (≈ 2.42 µM)		CC(C)=CCO/N=C/C12C[C@@H]3[C@H](C)CC[C@H]3C3(C=O)CC1C=C(C(C)C)[C@@]23C(=O)O	4.5 (≈ 10.9 µM)	4.5

Compound	MIC (Candida albicans) [µg/mL]	MIC (Nakaseomyces glabratus) [µg/mL]	MIC (Cryptococcus neoformans) [µg/mL]	CC50 (HEp-2) [µg/mL]	Therapeutic index [1]
CC(C)C1=CC2CC3(C=O)[C@@H]4CC[C@@H](C)[C@H]4CC2(CO)[C@]13C(=O)O	> 128	> 128			
CC(C)C1=CC2CC3(C=O)[C@@H]4CC[C@@H](C)[C@H]4CC2(c2cc(-c4ccccc4)on2)[C@]13C(=O)O	8 (≈ 18 µM)	0.25 (≈ 0.561 µM)			
CC(C)C1=CC2CC3(C=O)[C@@H]4CC[C@@H](C)[C@H]4CC2(c2cc(CO)on2)[C@]13C(=O)O	> 128	> 128			
